{"source": "patent US5071957A", "about": "“Antibiotic BU-4061T” (Bristol-Myers Company, priority 1990, dated 1991)", "key": {"[1]": {"system": "B16-F10 (murine melanoma) cells", "assay": "In vitro cytotoxicity against B16-F10 cells", "assay_type": "cell-based", "settings": "72 hours, colorimetric at 540 nm", "description": "(§1) B16-F10 (murine melanoma) and Moser (human colorectal carcinoma) cells were grown to the logarithmic phase in the enriched Eagle minimum essential medium supplemented with fetal calf serum (FCS, 10%) and kanamycin (60 μg/ml), while HCT-116 (human colon carcinoma) was grown in McCoy's 5A medium supplemented with FCS (10%) penicillin (100 μ/ml) and streptomycin (100 μg/ml). B16-F10, Moser and HCT-116 cells were harvested and implanted into wells of a 96-well microtiter plate with test materials at the inoculum sizes of 3×10^4, 6×10^4 and 6×10^4 cells/ml, respectively. They were incubated at 37° C. in a humidified atmosphere of 5% CO2 and 95% air for 72 hours. The cytotoxicity against tumor cells was determined colorimetrically at 540 nm after staining viable cells."}, "[2]": {"system": "B16 melanoma", "assay": "Antitumor activity against B16 melanoma (ip)", "description": "(§2) To determine in vivo antitumor activity of BU-4061T, male BDF1 mice were intraperitoneally inoculated with 0.5 ml of 10% melanotic melanoma B16 brei, and female CDF1 mice were intraperitoneally inoculated with 0.4 ml of diluted ascitic fluid containing 10^6 lymphocytic leukemia P388 cells. […] Test materials were intraperitoneally administered to mice on days 1, 5 and 9 (Q4D×3) or on days 1 to 9 (QlD×9)."}, "[3]": {"system": "P388 leukemia", "assay": "Antitumor activity against P388 leukemia (ip)", "settings": "Q1D × 9", "description": "as §2"}, "[4]": {"system": "DNA synthesis in B16-F10 melanoma cells", "assay": "Inhibition of DNA synthesis (3H-thymidine incorporation) in B16-F10 melanoma cells", "assay_type": "cell-based, murine", "description": "(§3) Inhibitory effects of BU-4061T on the macromolecule (DNA, RNA and protein) synthesis were determined in cultured B16-F10 melanoma cells. B16-F10 cells (10^5 cells/ml) were incubated with the compound at 37° C. for 4.5 hours (for DNA synthesis) or 4 hours (for RNA and protein synthesis). Labelled precursor, ^3 H-thymidine, ^14 C-uridine or ^3 H-leucine was added to the culture and further incubated for 30 minutes (for DNA) or 60 minutes (for RNA and protein). After washing with chilled 5% trichloroacetic acid solution, the radioactivity incorporated into the acid-insoluble fraction of the tumor cells was determined by a liquid scintillation counter."}, "[5]": {"system": "Moser (human colorectal carcinoma) cells", "assay": "In vitro cytotoxicity against Moser cells", "assay_type": "cell-based", "description": "as §1"}, "[6]": {"system": "RNA synthesis in B16-F10 melanoma cells", "assay": "Inhibition of RNA synthesis (14C-uridine incorporation) in B16-F10 melanoma cells", "assay_type": "cell-based, murine", "description": "as §3"}, "[7]": {"assay": "Solubility (physico-chemical properties)", "assay_type": "physicochemical", "source_text": "BU-4061T was obtained as a white amorphous powder. […] BU-4061T gave positive response to iodine vapor, ammonium molybdate-sulfuric acid solution and Rydon-Smith reagent, but negative response to ninhydrin and anthrone reagent."}, "[8]": {"system": "HCT-116 (human colon carcinoma)", "assay": "In vitro cytotoxicity against HCT-116 cells", "assay_type": "cell-based", "settings": "72 hours, colorimetric at 540 nm", "description": "as §1"}, "[9]": {"system": "protein synthesis in B16-F10 melanoma cells", "assay": "Inhibition of protein synthesis (3H-leucine incorporation) in B16-F10 melanoma cells", "assay_type": "cell-based, murine", "description": "as §3"}}}
{"molecule": "CC[C@H](C)[C@H](NC(=O)[C@H]([C@@H](C)CC)N(C)C(C)=O)C(=O)N[C@H](C(=O)N[C@@H](CC(C)C)C(=O)[C@@]1(C)CO1)[C@@H](C)O", "note": "[BU-4061T]", "values": [{"measurement": "IC50 B16-F10", "setting": "[1]", "value": 4.7, "unit": "ng/mL"}, {"measurement": "MST (median survival time)", "setting": "[2]; 0.063 mg/kg/day ip, Q1D × 9", "value": 15.5, "unit": "days"}, {"measurement": "T/C", "setting": "[2]; 0.063 mg/kg/day ip, Q1D × 9", "value": 119, "unit": "%"}, {"measurement": "MST (median survival time)", "setting": "[2]; 0.13 mg/kg/day ip, Q1D × 9", "value": 16.0, "unit": "days"}, {"measurement": "T/C", "setting": "[2]; 0.13 mg/kg/day ip, Q1D × 9", "value": 123, "unit": "%"}, {"measurement": "MST (median survival time)", "setting": "[2]; 0.25 mg/kg/day ip, Q1D × 9", "value": 18.0, "unit": "days"}, {"measurement": "MST (median survival time)", "setting": "[2]; 0.25 mg/kg/day ip, Q4D × 3", "value": 14.5, "unit": "days"}, {"measurement": "T/C", "setting": "[2]; 0.25 mg/kg/day ip, Q4D × 3", "value": 112, "unit": "%"}, {"measurement": "MST (median survival time)", "setting": "[2]; 0.5 mg/kg/day ip, Q1D × 9", "value": 19.5, "unit": "days"}, {"measurement": "MST (median survival time)", "setting": "[2]; 0.5 mg/kg/day ip, Q4D × 3", "value": 15.5, "unit": "days"}, {"measurement": "T/C", "setting": "[2]; 0.5 mg/kg/day ip, Q4D × 3", "value": 119, "unit": "%"}, {"measurement": "MST (median survival time)", "setting": "[2]; 1 mg/kg/day ip, Q1D × 9", "value": 19.0, "unit": "days"}, {"measurement": "MST (median survival time)", "setting": "[2]; 1 mg/kg/day ip, Q4D × 3", "value": 15.5, "unit": "days"}, {"measurement": "T/C", "setting": "[2]; 1 mg/kg/day ip, Q4D × 3", "value": 119, "unit": "%"}, {"measurement": "MST (median survival time)", "setting": "[2]; 2 mg/kg/day ip, Q4D × 3", "value": 17.0, "unit": "days"}, {"measurement": "MST (median survival time)", "setting": "[2]; 4 mg/kg/day ip, Q4D × 3", "value": 16.5, "unit": "days"}, {"measurement": "antitumor activity against B16 melanoma (in words)", "setting": "[2]; ip, either Q4D×3 or Q1D×9 treatment schedule", "value": "significant antitumor activities"}, {"measurement": "MST (median survival time)", "setting": "[3]; 0.063 mg/kg/day ip", "value": 10.5, "unit": "days"}, {"measurement": "T/C", "setting": "[3]; 0.063 mg/kg/day ip", "value": 105, "unit": "%"}, {"measurement": "MST (median survival time)", "setting": "[3]; 0.13 mg/kg/day ip", "value": 11.0, "unit": "days"}, {"measurement": "T/C", "setting": "[3]; 0.13 mg/kg/day ip", "value": 110, "unit": "%"}, {"measurement": "MST (median survival time)", "setting": "[3]; 0.25 mg/kg/day ip", "value": 11.5, "unit": "days"}, {"measurement": "T/C", "setting": "[3]; 0.25 mg/kg/day ip", "value": 115, "unit": "%"}, {"measurement": "MST (median survival time)", "setting": "[3]; 0.5 mg/kg/day ip", "value": 13.0, "unit": "days"}, {"measurement": "MST (median survival time)", "setting": "[3]; 1 mg/kg/day ip", "value": 10.5, "unit": "days"}, {"measurement": "T/C", "setting": "[3]; 1 mg/kg/day ip", "value": 105, "unit": "%"}, {"measurement": "inhibitory effect on DNA synthesis (in words)", "setting": "[4]", "value": "moderate inhibitory effects"}, {"measurement": "IC50 DNA", "setting": "[4]; 4.5 hours + 30 minutes 3H-thymidine", "value": 16, "unit": "µg/mL"}, {"measurement": "IC50 Moser", "setting": "[5]; 72 hours, colorimetric at 540 nm", "value": 0.17, "unit": "µg/mL"}, {"measurement": "cytotoxicity against Moser cells (in words)", "setting": "[5]; compared with B16-F10 and HCT-116 cells", "value": "weaker than that against B16-F10 and HCT-116 cells"}, {"measurement": "inhibitory effect on RNA synthesis (in words)", "setting": "[6]", "value": "moderate inhibitory effects"}, {"measurement": "IC50 RNA", "setting": "[6]; 4 hours + 60 minutes 14C-uridine", "value": 46, "unit": "µg/mL"}, {"measurement": "solubility in ethyl acetate", "setting": "[7]; ethyl acetate", "value": "readily soluble"}, {"measurement": "solubility in methanol", "setting": "[7]; methanol", "value": "readily soluble"}, {"measurement": "solubility in methylene chloride", "setting": "[7]; methylene chloride", "value": "readily soluble"}, {"measurement": "solubility in water", "setting": "[7]; water", "value": "practically insoluble"}, {"measurement": "IC50 HCT-116", "setting": "[8]", "value": 6.7, "unit": "ng/mL"}, {"measurement": "inhibition of incorporation of leucine into the protein fraction (in words)", "setting": "[9]; 100 μg/ml, the highest concentration tested", "value": "did not significantly inhibit"}, {"measurement": "IC50 Protein", "setting": "[9]; B16-F10 cells, 4 hours + 60 minutes 3H-leucine", "value": "> 100", "unit": "µg/mL"}]}
{"molecule": "CO[C@@]12[C@H](COC(N)=O)C3=C(C(=O)C(C)=C(N)C3=O)N1C[C@@H]1N[C@@H]12", "note": "[Mitomycin C, mitomycin C]", "values": [{"measurement": "Body Wt. change on day 5", "setting": "[2]; 0.3 mg/kg/day ip, Q4D × 3", "value": -0.3, "unit": "g"}, {"measurement": "MST (median survival time)", "setting": "[2]; 0.3 mg/kg/day ip, Q4D × 3", "value": 13.0, "unit": "days"}, {"measurement": "T/C", "setting": "[2]; 0.3 mg/kg/day ip, Q4D × 3", "value": 100, "unit": "%"}, {"measurement": "Body Wt. change on day 5", "setting": "[2]; 1 mg/kg/day ip, Q4D × 3", "value": -0.8, "unit": "g"}, {"measurement": "MST (median survival time)", "setting": "[2]; 1 mg/kg/day ip, Q4D × 3", "value": 18.0, "unit": "days"}, {"measurement": "Body Wt. change on day 5", "setting": "[2]; 3 mg/kg/day ip, Q4D × 3", "value": -0.3, "unit": "g"}, {"measurement": "MST (median survival time)", "setting": "[2]; 3 mg/kg/day ip, Q4D × 3", "value": 28.0, "unit": "days"}, {"measurement": "Body Wt. change on day 4", "setting": "[3]; 0.063 mg/kg/day ip", "value": "+0.8 g"}, {"measurement": "MST (median survival time)", "setting": "[3]; 0.063 mg/kg/day ip", "value": 11.0, "unit": "days"}, {"measurement": "T/C", "setting": "[3]; 0.063 mg/kg/day ip", "value": 110, "unit": "%"}, {"measurement": "Body Wt. change on day 4", "setting": "[3]; 0.13 mg/kg/day ip", "value": "+1.3 g"}, {"measurement": "MST (median survival time)", "setting": "[3]; 0.13 mg/kg/day ip", "value": 12.0, "unit": "days"}, {"measurement": "T/C", "setting": "[3]; 0.13 mg/kg/day ip", "value": 120, "unit": "%"}, {"measurement": "Body Wt. change on day 4", "setting": "[3]; 0.25 mg/kg/day ip", "value": "+1.0 g"}, {"measurement": "MST (median survival time)", "setting": "[3]; 0.25 mg/kg/day ip", "value": 13.0, "unit": "days"}, {"measurement": "Body Wt. change on day 4", "setting": "[3]; 0.5 mg/kg/day ip", "value": 0.0, "unit": "g"}, {"measurement": "MST (median survival time)", "setting": "[3]; 0.5 mg/kg/day ip", "value": 15.5, "unit": "days"}, {"measurement": "Body Wt. change on day 4", "setting": "[3]; 1 mg/kg/day ip", "value": -0.8, "unit": "g"}, {"measurement": "MST (median survival time)", "setting": "[3]; 1 mg/kg/day ip", "value": 17.0, "unit": "days"}]}
